Test results reported in US20020035243A1, “Transport system conjugates” (priority 1998, published 2002).
Numbered stars: 1 amine (or outer) side, 2 acyl side, 3 side chain; on linkers, the order of the positions; unused ones are H or OH. Ends that are not written are not given here. Ethylenediamine = C(CN[*:2])N[*:1]

What was measured:
[1] = test system: Cloudman S91 melanoma cells; experiment: Melanin formation in melanoma cells with and without α-MSH (indirect measure of TMP penetration); assay type: cell-based; conditions: for OD450 nm (melanin content of lysate): 5 days
Method: Cloudman S91 melanoma cells (ATCC CCL-53.1) are cultivated to confluence in DMEM+10% FCS in 24-well culture dishes. The S91 cells (0.5 ml per culture) are incubated for 5 days with and without TMP and with 15 nM α-MSH and then harvested. The TMP/TMP-L is added at least 2 hours before the α-MSH. For determination of the melanin, the medium is discarded and the adhering cells are washed 1× with PBS. The cells are then lysed with 0.1 ml of 0.2 M NaOH and the melanin content of the lysate is measured at 450 nm. The cultures of the experimental series are made up in duplicate, the 2nd batch being used to determine the cell count by the MTT test (Mosmann T., J. of Immun. Methods 1983, 65, 55-63). The cell count indicates growth inhibiting effects and the melanin content is given relative to the cell count (OD450 nm/10^6 cells).

HaCaT cells = experiment: Penetration of carrier-conjugated peptides into keratinocytes; fluorescein-streptavidin staining, confocal microscopy; assay type: cell-based; conditions: 4 hours incubation, 25 μM
Method: Approx. 5×10^5 HaCaT cells (a gift from Dr. N. E. Fusenig, Deutsches Krebsforschungszentrum Heidelberg) are inoculated into 60 mm culture dishes from a confluent culture (DMEM+5% FCS) and allowed to grow for about 12 hours. The cell cultures are incubated for 4 hours with 25 μM Ac-Leu-Gly-Asp[NH(CH2)5—NH—CO-biotin]-Lys(ε-D,L-6,8-dithiooctanamide)-NH—CH2—CH2—NH-octanoylamide and the cells are washed (2× with FCS-free DMEM) and fixed for 5 min at −20° C. with EtOH/acetic acid (95/5). They are washed three times with PBS and then bound to fluorescein-labelled streptavidin (1000×diluted in PBS+10% FCS). Prior to microscopy the cells were washed a further three times with PBS and dried. Photographs were taken with a confocal scanning laser microscope (Sarastro 2000, Molecular Dynamics) at an excitation wavelength of 488 nm using a 510 nm emission filter.

smooth muscle cells [2] = experiment: Penetration of carrier-conjugated peptides into smooth muscle cells; immunofluorescence of α-SM-actin polymerization; assay type: cell-based, Wistar rats; conditions: 1 mg/ml in cell culture solution, 1 hour after treatment
Method: Smooth muscle cells are isolated by enzymatic cleavage from the thoracic aorta of 6-week-old Wistar rats. 10,000 cells are placed on 60 mm Petri dishes and allowed to grow for 5-6 h in DME and 10% foetal calf serum. The cells are incubated with the peptides for approximately 1 hour in the incubator, then washed twice with PBS (0.5 mmol CaCl2, 3 mmol MgCl2), then fixed with 3% parafornaldehyde for 10 min and permeabilized with 0.1% Triton X-100 in PBS for 1 minute, double-immunofluorescent stained for α-SM-actin and total actin with mouse anti-α-SM 1 and rabbit polyclonal anti-actin antibody, respectively, followed by staining with sheep anti-mouse IgG conjugated with tetramethylrhodamine B isothiocyanate or fluorescent isothiocyanate and sheep anti-rabbit IgG conjugated with fluorescent isothiocyanate, respectively. The preparations are washed with PBS and fixed in polyvinyl alcohol buffer. Photographs are taken with a Zeiss Axiophot light microscope using a fluorescein or rhodamine filter:
FIGS. 1-6 show the immunofluorescence photographs of the inhibition of polymerization 1 hour after treatment of the cell cultures with the substances, the concentration of the cell culture solution being 1 mg/ml.

smooth muscle cells [3] = experiment: as above; assay type: cell-based, Wistar rats; conditions: c=0.5 mg, 1 mg and 2 mg per ml of cell culture solution
α-smooth muscle actin = conditions: microinjected into cells; cited from earlier work
[4] = S91, 30 nM substance plus 15 nM α-MSH
[5] = S91, 30 nM substance, without α-MSH, untreated control about the same

α-MSH: stimulant of melanin formation added to S91 cells at 15 nM (Ac-SYSMEHFRWGKPV-NH2; ends and bridges not checked; UniProt P01189 138-150, looked up) [reference compound]
OD450 nm (melanin content of lysate) ([1]; S91, 15 nM α-MSH alone): approximately 0.7

Ac-Leu-Gly-Asp[NH(CH2)5—NH—CO-biotin]-Lys(ε-D,L-6,8-dithio-octanamide)-NH—CH2CH2—NH-octanoylamide [Batch d]
fluorescent staining of cells (HaCaT cells): attractive fluorescent staining

Ac-Glu-Glu-Glu-Asp-Lys-NH—CH2—CH2—NH—C═O—(CH2)6—CH3 (Ac-EEEDK-{Ethylenediamine-octanoyl}) [reference compound]
fluorescein staining (left picture) (smooth muscle cells [2]): strong
penetration of the peptide into the cell (smooth muscle cells [2]): no penetration
polymerization of the smooth α-actin filaments (smooth muscle cells [2]): completely developed
rhodamine staining of the smooth muscle α-actin polymers (right picture) (smooth muscle cells [2]): strong

H-Glu-Asp-Tyr-His-Ser-Leu-Tyr-Asn-Ser-His-Leu-Lys(ε-D,L-6,8-dithiooctanamide)-NH—CH2CH2—NH-octanylamide (H-EDYHSLYNSHLK-{Ethylenediamine-octanoyl}; not fully specified (residue 12)) [transporter-bound TMP]
OD450 nm (melanin content of lysate) [1, 4]: approximately 0.2
OD450 nm (melanin content of lysate) [1, 5]: approximately 0.2
effect on melanin formation induced by α-MSH ([1]; S91 treated with α-MSH combined with transporter-bound TMP): prevention of melanin formation

Ac-Glu-Glu-Glu-Asp-Lys(E-D,L-6,8-dithiooctanoylamide)-NH—CH2—CH2—NH-hexadecanoylamide (Ac-EEEDK(D,L‑6,8‑dithiooctanoyl)-{Ethylenediamine-hexadecanoyl})
fluorescein staining (left picture) (smooth muscle cells [2]): slight
penetration of the peptide into the cell (smooth muscle cells [2]): good penetration
polymerization of the smooth α-actin filaments (smooth muscle cells [2]): very poorly developed
rhodamine staining of the smooth muscle α-actin polymers (right picture) (smooth muscle cells [2]): slight

Ac-Glu-Glu-Glu-Asp-Lys-NH—CH2—CH2—NH-hexadecanoylamide (Ac-EEEDK-{Ethylenediamine-hexadecanoyl}) [reference compound]
fluorescein staining (left picture) (smooth muscle cells [2]): strong
penetration of the peptide into the cell (smooth muscle cells [2]): no penetration
polymerization of the smooth α-actin filaments (smooth muscle cells [2]): completely developed
rhodamine staining of the smooth muscle α-actin polymers (right picture) (smooth muscle cells [2]): strong

CCCCCCCC(=O)NNCCNC(=O)C(N)CCCCNC(=O)CCCCC1CCSS1 [free transporter, H-Lys(ε-D,L-6,8-dithiooctanamide)-NH—CH2CH2—NH—NH-octanoylamide]
OD450 nm (melanin content of lysate) [1, 4]: approximately 0.7
OD450 nm (melanin content of lysate) [1, 5]: approximately 0.2

Ac-Glu-Glu-Glu-Asp-Lys(ε-D,L-6,8-dithiooctanoylamide)-NH—CH2—CH2—NH—C═O—(CH2)6—CH3 (Ac-EEEDK(D,L‑6,8‑dithiooctanoyl)-{Ethylenediamine-octanoyl})
dose-effect relationship (smooth muscle cells [3]): qualitative dose-effect relationship
fluorescein staining (left picture) (smooth muscle cells [2]): slight
penetration of the peptide into the cell (smooth muscle cells [2]): best penetration
polymerization of the smooth α-actin filaments (smooth muscle cells [2]): very poorly developed
rhodamine staining of the smooth muscle α-actin polymers (right picture) (smooth muscle cells [2]): slight

Ac-Leu-Gly-Asp[NH(CH2)5—NH—CO-biotin]-OH [Ac-Leu-Gly-Asp-OH]
fluorescent staining of cells (HaCaT cells): no fluorescent staining

EDYHSLYNSHL [free TMP, reference compound]
OD450 nm (melanin content of lysate) [1, 4]: approximately 0.7
OD450 nm (melanin content of lysate) [1, 5]: approximately 0.2

Ac-Glu-Glu-Glu-Asp-Lys(ε-D,L-6,8-dithiooctanoylamide)-NH2 (Ac-EEEDK(D,L‑6,8‑dithiooctanoyl)-NH2)
fluorescein staining (left picture) (smooth muscle cells [2]): partial
penetration of the peptide into the cell (smooth muscle cells [2]): penetration
polymerization of the smooth α-actin filaments (smooth muscle cells [2]): partially developed
rhodamine staining of the smooth muscle α-actin polymers (right picture) (smooth muscle cells [2]): partial

Ac-Glu-Glu-Glu-Asp-NH2 (Ac-EEED-NH2) [reference compound]
polymerization of α-smooth muscle actin after microinjection in excess (α-smooth muscle actin): inhibits
fluorescein staining (left picture) (smooth muscle cells [2]): strong
penetration of the peptide into the cell (smooth muscle cells [2]): no penetration
polymerization of the smooth α-actin filaments (smooth muscle cells [2]): completely developed
rhodamine staining of the smooth muscle α-actin polymers (right picture) (smooth muscle cells [2]): strong
